Results from patent US11020352B2, “Systems and methods for the fabrication of tablets, including pharmaceutical tablets” (Massachusetts Institute of Technology, priority 2017, dated 2021).

What was measured:
[1] = Particle size of API and excipients; assay type: physicochemical; details: API/excipient powder
From the text: Microscopy images showing the morphology of IBU and DIZ particles are shown in FIGS. 29A and 29B, respectively. IBU and DIZ both are fine particles with a d50 of 21.87 μm and 23.12 μm, respectively.

[2] = Bulk and flow properties of powders (FT4 Powder Rheometer); assay type: physicochemical; details: API/excipient powder

Row | Molecule | Particle size d10 [1] | Particle size d50 [1] | Particle size d90 [1] | Bulk density [2] | Compressibility [2] | Flow function coefficient (ffc) [2]
1 | Magnesium stearate | 2.76 μm | 6.86 μm | 15.10 μm | 0.31 g/mL | 38.97% | 5.18
2 | OC[C@H]1O[C@@H](O[C@H]2[C@H](O)[C@@H](O)C(O)O[C@@H]2CO)[C@H](O)[C@@H](O)[C@H]1O (some centres unmarked) [Anhydrous lactose] | 26.03 μm | 188.75 μm | 425.90 μm | 0.74 g/mL | 13.10% | 5.69
3 | CN1C(=O)CN=C(c2ccccc2)c2cc(Cl)ccc21 [Diazepam (DIZ), Diazepam, reference compound] | 5.74 μm | 23.12 μm | 110.75 μm |  | 32.73% | 2.78
4 | CC(C)Cc1ccc(C(C)C(=O)O)cc1 (centres unmarked) [Ibuprofen (IBU), Ibuprofen, reference compound] | 4.86 μm | 21.87 μm | 75.31 μm | 0.53 g/mL | 25.07% | 3.87
